For orientation: Ki means the equilibrium dissociation constant of an inhibitor or competing ligand from its target. A lower Ki goes with tighter binding.

Structures can show the parent of a compound that is named as a salt.

We go through 1 compound from paper PMC11651181, “Discovery of 6α-Thiazolylcarboxamidonaltrexamine Derivative (NTZ) as a Potent and Central Nervous System Penetrant Opioid Receptor Modulator with Drug-like Properties for Potential Treatment of Opioid Use Disorder” (ACS Pharmacology & Translational Science, 2024).

For assay [1], the target named is T1, δ opioid receptor (DOR) (Homo sapiens, UniProt P41143).
T1 construct: expressed in transfected cells; host or cells: CHO (hDOR-CHO), membrane preparation
Put plainly: Competitive radioligand binding assay, DOR. As for the experimental part:
(§1) The competition binding assay was performed using monoclonal mouse opioid receptors expressed in CHO cell lines (monoclonal human δ opioid receptor was used for the DOR assay).
(§2) The bound radioligand was separated using a Brandel harvester. Specific binding to the MOR, KOR, and DOR was calculated by subtracting the binding observed in the presence of 5 μM naltrexone, U50488, and SNC80, respectively, from the binding in their absence. Relative affinity values (IC50) were determined by fitting displacement binding inhibition data to a nonlinear regression model using GraphPad Prism 8.0 (GraphPad Software, San Diego, CA). The % inhibition was calculated using the formula: % inhibition = 100% - [(binding with the tested compound - nonspecific binding)/specific binding] × 100%. The IC50 values were converted to Ki values using the Cheng-Prusoff equation: Ki = IC50/ [1 + ([L*]/KD)], where [L*] is the concentration of the radioligand and KD is the KD of the radioligand.[68]

In assay [2] the target is T2, μ opioid receptor (MOR) (Mus musculus, UniProt P42866).
T2 construct: expressed in transfected cells; host or cells: CHO (mMOR-CHO), membrane preparation
Put plainly: Competitive radioligand binding assay, MOR. As for the experimental part: as §1, §2

T1 sequence (P41143 whole entry): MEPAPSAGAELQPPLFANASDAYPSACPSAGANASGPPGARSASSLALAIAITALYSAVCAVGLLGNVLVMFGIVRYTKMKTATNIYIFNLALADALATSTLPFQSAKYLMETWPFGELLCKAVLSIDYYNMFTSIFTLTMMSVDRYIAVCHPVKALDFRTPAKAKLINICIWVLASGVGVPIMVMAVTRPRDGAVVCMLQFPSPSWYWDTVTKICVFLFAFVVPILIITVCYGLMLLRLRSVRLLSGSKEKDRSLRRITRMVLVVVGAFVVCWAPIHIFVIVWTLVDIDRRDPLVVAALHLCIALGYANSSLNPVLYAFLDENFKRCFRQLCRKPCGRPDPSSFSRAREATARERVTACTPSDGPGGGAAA
T2 sequence (P42866 whole entry): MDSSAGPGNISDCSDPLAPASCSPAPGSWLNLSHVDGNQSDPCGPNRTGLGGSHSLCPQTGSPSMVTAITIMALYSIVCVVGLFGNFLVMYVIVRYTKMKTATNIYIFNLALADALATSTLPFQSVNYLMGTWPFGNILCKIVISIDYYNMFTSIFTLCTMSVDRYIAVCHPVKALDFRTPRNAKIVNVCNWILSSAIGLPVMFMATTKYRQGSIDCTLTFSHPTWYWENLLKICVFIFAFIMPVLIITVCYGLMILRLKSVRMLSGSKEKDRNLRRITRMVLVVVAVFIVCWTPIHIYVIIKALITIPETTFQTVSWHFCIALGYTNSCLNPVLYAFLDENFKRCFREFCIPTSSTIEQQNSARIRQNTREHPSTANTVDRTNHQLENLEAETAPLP

For `O=C(N[C@H]1CC[C@@]2(O)[C@H]3Cc4ccc(O)c5c4[C@@]2(CCN3CC2CC2)[C@H]1O5)c1nccs1` [Compound 6, 17-Cyclopropylmethyl-3,14β-dihydroxy-4,5α-epoxy-6α-(2′-thiazolylcarboxamido)-morphinan hydrochloride], the Ki in assay [1] turned out to be 41.1 ± 3.58 nM; in assay [2], 0.25 ± 0.03 nM. The “Selectivity δ/μ” value in assay [1] (ratio of Ki values) is reported as 164.
